Source: publication PMC12024264, “Frog Skin Peptides Hylin-a1, AR-23, and RV-23: Promising Tools Against Carbapenem-Resistant Escherichia coli and Klebsiella pneumoniae Infections” (Antibiotics, 2025)
Where no end group is shown, it is not given here.

What was measured:
HaCaT cells = assay: MTT cytotoxicity assay on HaCaT keratinocytes; assay type: cell-based, human
Method: To evaluate their safety profile, cytotoxicity assays were performed on HaCaT keratinocytes. Cells were exposed for 20 h to peptides at doses ranging from 0.39 to 100 μM.
Figure 1 Dose–response curves for the AMPs against HaCaT cell line and CC50 (reported in μM), HillSlope, and R^2 values were obtained by the fitting of the curves. The viability effect of Hylin-a1, AR-23, and RV-23 was analyzed on HaCaT cells. The cell monolayer was treated with serial dilutions of peptides for 20 h. Untreated cells were used as a positive control, while dimethyl sulfoxide (DMSO) was used as a negative control. HillSlope: The measure of the steepness of the dose–response curve. […] R^2 (coefficient of determination) indicates how well the model fits the data. Ranges from 0 to 1, with 1 representing a perfect fit.
The cytotoxic effect of peptides was examined using 3-(4,5 dimethylthiazol-2-yl)-2,5-diphenyltetrazolium bromide (MTT), as previously described. Cell viability, expressed as a percentage, was calculated in relation to the viability of untreated cells (+). DMSO was used as negative control (−). The human keratinocyte cell line HaCaT (Cell Lines Service, CLS-, Eppelheim, Germany) was used as a cellular model to evaluate the peptides’ cytotoxicity. HaCaT cells were grown in Dulbecco’s Modified Eagle Medium (DMEM) with 4.5 g/L of glucose (Microtech, Naples, Italy) supplemented with an antibiotic solution 100× (Himedia, Naples, Italy) and 10% Fetal Bovine Serum (FBS, Microtech).

E. coli ATCC 25992 = settings: microdilution (NCCLS), MH broth, 5 × 10^5 CFU/mL, 37 °C, 20 h, absorbance; 50 to 1.56 μM
Method: (§1) The three peptides were tested for their antibacterial activity. […] As described in the Materials and Methods section, the antibacterial effect of peptides was investigated using a microdilution assay. Each concentration of AMPs was inoculated with bacteria in 96-well plates and incubated at 37 °C for 20 h. After that, MIC values were determined by analyzing absorbance and expressed as a percentage of inhibition. MBC was assessed by observing the colonies’ growth on agar plates, as described elsewhere.
(§2) Each strain was grown in Mueller Hinton Broth (MH Broth), and 5 × 10^5 CFU/mL was used to evaluate antibacterial activity. Clinical carbapenem-resistant K. pneumoniae and E. coli isolates were collected at the AOU of Virology and Microbiology of the University of Campania “Luigi Vanvitelli”.
(§3) The antimicrobial activity of Hylin-a1, AR-23, and RV-23 was investigated using a microdilution assay as reported by the National Committee on Clinical Laboratory Standards (NCCLS) guidelines against a broad spectrum of Gram-negative bacteria. […] In 96-well, the standardized bacterial inoculum (5 × 10^5 colony forming units, CFU/mL) was inoculated together with AMPs and incubated at 37 °C for 20 h. After the time of incubation, optical density (OD) was measured at TECAN, and data were expressed as a percentage of inhibition. In addition to assessing the MIC values, the bactericidal effect was also studied as reported elsewhere.

K. pneumoniae ATCC 10031 = tested on: K. pneumoniae ATCC 10031
Method: as §1, §2, §3

E. coli 1376 = settings: carbapenemase NDM (class B), rectal swab, N/D = no antibacterial activity detected
Method: as §2, §3

E. coli 1441 = settings: carbapenemase KPC (class A), rectal swab; microdilution, 37 °C, 20 h; N/D = no antibacterial activity detected
Method: as §2, §3

E. coli 2267 = settings: carbapenemase NDM (class B), rectal swab; microdilution, 37 °C, 20 h; N/D = no antibacterial activity detected
Method: as §2, §3

E. coli 3140 = settings: carbapenemase OXA-48 (class D), urine; microdilution, 37 °C, 20 h; N/D = no antibacterial activity detected
Method: as §2, §3

E. coli 716 = settings: carbapenemases IMP1, VIM, NDM (class B), urine, N/D = no antibacterial activity detected
Method: as §2, §3

K. pneumoniae 1711 = settings: carbapenemase KPC (class A), rectal swab; microdilution, 37 °C, 20 h; N/D = no antibacterial activity detected
Method: as §2, §3

K. pneumoniae 1745 = settings: carbapenemase KPC (class A), ulcer; microdilution, 37 °C, 20 h; N/D = no antibacterial activity detected
Method: as §2, §3

K. pneumoniae 1746 = settings: carbapenemase VIM (class B), rectal swab; microdilution, 37 °C, 20 h; N/D = no antibacterial activity detected
Method: as §2, §3

Serum stability assay = assay type: in vitro ADME, bovine; settings: 10% FBS
Method: The susceptibility of Hylin-a1, AR-23, and RV-23 to proteolytic degradation in serum was evaluated, following the protocol reported in Section 4.3.
Figure 6 AMP stability in serum. Stability profiles of Hylin-a1 (red line), AR-23 (gray line), and RV-23 (black line) are reported. All stability tests were performed at least in triplicate. LC-MS analyses were performed using an Agilent 1260 Infinity II LC/MSD system (Milan, Italy). The percentages of intact peptides after different time points of incubation in serum were determined by integrating RP-HPLC peaks from the chromatograms recorded at a wavelength of 210 nm. The test was performed in triplicate, and the data are presented as mean values, with error bars representing standard deviations.
Peptides were mixed with 10% FBS at a final concentration of 0.2 mg/mL and incubated in a water bath at 37 °C. […] Then, the mixture was diluted with 0.1% TFA in H2O (1:1). Samples were characterized using LC-MS on a C18 Aeris Peptide column (100 × 2.1 mm), applying a linear gradient from 5 to 80% solvent B (0.1% TFA in CH3CN) over solvent A (0.1% TFA in water) in 15 min at a flow rate of 0.2 mL/min. All stability tests were performed at least in triplicate. LC-MS analyses were performed using an Agilent 1260 Infinity II LC/MSD system (Milan, Italy).

AIGSILGALAKGLPTLISWIKNR-NH2 [AR-23]
50% cytotoxic concentration (CC50) (HaCaT cells; HaCaT keratinocytes, 20 h exposure, 0.39 to 100 μM): 50 µM
CC50 obtained by the fitting of the curves (HaCaT cells; HaCaT, 20 h, Figure 1): 52.25 µM
MIC (E. coli ATCC 25992): 25 µM
MBC (K. pneumoniae ATCC 10031; colonies' growth on agar plates after microdilution, N/D = not detected antibacterial activity): 25 µM
MIC (K. pneumoniae ATCC 10031; microdilution (NCCLS), MH broth, 5 × 10^5 CFU/mL, 37 °C, 20 h, absorbance, 50 to 1.56 μM): 6.25 µM
MBC (E. coli 1376): 50 µM
MIC (E. coli 1376; microdilution, 37 °C, 20 h): 25 µM
MIC (E. coli 1441): 25 µM
MIC (E. coli 2267): 25 µM
MIC (E. coli 3140): 50 µM
MBC (E. coli 716): 50 µM
MIC (E. coli 716; microdilution, 37 °C, 20 h): 25 µM
MIC (K. pneumoniae 1711): 50 µM
MIC (K. pneumoniae 1745): 50 µM
MIC (K. pneumoniae 1746): 25 µM
percentage of intact fragments, almost constant up to 24 h (Serum stability assay; 0.2 mg/mL, 37 °C, RP-HPLC peaks at 210 nm, mean of triplicate, after the first 2 h up to 24 h): around 30%
half-life (Serum stability assay; serum, peptide 0.2 mg/mL, 37 °C water bath, ethanol precipitation, LC-MS, RP-HPLC peak integration at 210 nm, at least triplicate): < 120 min
